Measured values reported in ChEMBL document CHEMBL3739390, “Plantadeprate A, a Tricyclic Monoterpene Zwitterionic Guanidium, and Related Derivatives from the Seeds of Plantago depressa” (2015).

Key:
[1] = target: T1, Angiotensin-converting enzyme (Oryctolagus cuniculus) (UniProt P12822); experiment: Inhibition of rabbit lung ACE using hippuryl-histidyl-leucine as substrate assessed as hippuric acid formation at 10 mM by UPLC-MS analysis
T1 sequence (whole entry): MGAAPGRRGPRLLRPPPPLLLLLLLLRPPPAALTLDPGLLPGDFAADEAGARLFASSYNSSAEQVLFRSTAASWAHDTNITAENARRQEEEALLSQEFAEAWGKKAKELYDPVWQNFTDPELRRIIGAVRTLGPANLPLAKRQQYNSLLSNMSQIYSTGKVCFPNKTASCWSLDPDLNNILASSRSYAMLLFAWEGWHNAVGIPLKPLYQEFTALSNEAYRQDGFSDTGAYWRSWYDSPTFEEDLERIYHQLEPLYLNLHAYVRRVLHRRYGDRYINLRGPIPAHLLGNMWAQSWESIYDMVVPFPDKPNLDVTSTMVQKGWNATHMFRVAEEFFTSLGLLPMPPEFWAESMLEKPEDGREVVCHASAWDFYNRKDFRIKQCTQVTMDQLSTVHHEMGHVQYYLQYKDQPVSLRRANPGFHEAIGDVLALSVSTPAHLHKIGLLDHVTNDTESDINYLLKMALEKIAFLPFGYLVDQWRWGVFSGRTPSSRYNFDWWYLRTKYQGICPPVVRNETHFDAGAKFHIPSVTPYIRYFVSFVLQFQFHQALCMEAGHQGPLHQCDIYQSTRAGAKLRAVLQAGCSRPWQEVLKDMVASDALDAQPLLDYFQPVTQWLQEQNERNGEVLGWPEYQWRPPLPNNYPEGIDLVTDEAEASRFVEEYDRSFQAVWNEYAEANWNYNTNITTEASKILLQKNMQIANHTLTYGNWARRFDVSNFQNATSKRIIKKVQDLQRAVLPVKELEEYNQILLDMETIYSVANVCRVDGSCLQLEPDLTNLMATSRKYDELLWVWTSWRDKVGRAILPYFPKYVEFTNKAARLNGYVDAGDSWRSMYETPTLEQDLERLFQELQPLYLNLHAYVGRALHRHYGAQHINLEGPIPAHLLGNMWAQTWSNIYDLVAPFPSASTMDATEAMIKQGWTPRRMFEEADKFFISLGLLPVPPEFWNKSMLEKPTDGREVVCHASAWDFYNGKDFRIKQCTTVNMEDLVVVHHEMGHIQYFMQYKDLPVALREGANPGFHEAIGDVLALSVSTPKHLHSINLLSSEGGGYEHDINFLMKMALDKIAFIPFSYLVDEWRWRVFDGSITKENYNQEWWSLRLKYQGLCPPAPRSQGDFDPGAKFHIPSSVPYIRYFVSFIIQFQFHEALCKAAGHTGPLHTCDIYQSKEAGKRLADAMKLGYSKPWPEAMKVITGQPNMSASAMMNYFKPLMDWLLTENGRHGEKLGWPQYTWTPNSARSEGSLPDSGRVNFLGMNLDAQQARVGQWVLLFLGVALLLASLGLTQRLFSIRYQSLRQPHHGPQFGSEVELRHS

[2] = tested on: Saccharomyces cerevisiae; experiment: Inhibition of Saccharomyces cerevisiae alpha-glucosidase using 4-nitrophenyl alpha-glucopyranoside as substrate at 6.25 mM preincubated for 10 mins followed by substrate addition measured after 20 mins by spectrophotometric analysis
[3] = tested on: Hepatocyte; experiment: Antihyperglycemic activity in Sprague-Dawley rat hepatocytes assessed as inhibition of glucose production at 40 uM after 6 hrs by glucose oxidase activity assay; type: functional
[4] = tested on: Hepatocyte; experiment: Antihyperglycemic activity in Sprague-Dawley rat hepatocytes assessed as inhibition of glucose production at 2 mM after 6 hrs by glucose oxidase activity assay; type: functional

Structure (SMILES) | inhibition [1] [%] | inhibition [2] [%] | inhibition at 40 µM [3] [%] | inhibition at 2000 µM [4] [%]
CC1(C)C[C@]2(O)C[C@@H](C(=O)[O-])[C@@H]3CNC(=[N+]32)N1 | 26 | 20 | 8.2 | –
CN(C)C(=N)NC(=N)N [METFORMIN] | – | – | – | 25
CC(C)=CCC[C@@H](C(=O)O)[C@@H]1CNC(=N)N1 | – | – | 12.5 | –
CC(C)=CCC[C@@H](C(=O)O)[C@@H]1CN(CC(O)CCO)C(=N)N1 (stereo partly specified) | – | – | 18.5 | –
